# Test results published in patent publication US20130116292A1, “NEURORESTORATION WITH R(+) PRAMIPEXOLE” (University of Virginia Patent Foundation, priority 2005, published 2013).
# Key:
# [1] = tested on: D2 family of dopamine receptors; conditions: cited from earlier work
# [2] = tested on: patients with amyotrophic lateral sclerosis (ALS); conditions: 30 mg/day for up to 8 weeks
# Method: Phase I clinical studies with R(+) pramipexole were conducted in patients with amyotrophic lateral sclerosis (ALS), a fatal adult neurodegenerative disease arising from the loss of motor nerve cells. […] These reports included such things as regaining the ability to speak coherently, the ability to climb stairs again, and improved motor skills in their extremities, i.e. hands and/or fingers.
# [3] = tested on: oxidative stress produced by MPP+ (ETC complex I inhibitor); conditions: both in vitro and in vivo; cited from earlier work
# [4] = tested on: dopamine neurons (MPTP toxicity); conditions: cellular and animal models of increased oxidative stress, including MPTP toxicity to dopamine neurons; cited from earlier work
# [5] = tested on: mitochondrial transition pore (MTP); conditions: induced by MPP+ and other stimuli; cited from earlier work
stability in aqueous solutions,SMILES,"dopamine agonist activity ([1]; Schneider and Mierau, J. Med. Chem. 1987)",patients reporting improvements in motor function [2],agonism of the D2 family of dopamine receptors [1],effect on oxidative stress produced by MPP+ [3],neuroprotection [4],effect on opening of the mitochondrial transition pore (MTP) [5]
stable in aqueous solutions,"CCCN[C@@H]1CCc2nc(N)sc2C1 [R(+) pramipexole, R-(+)-2-amino-4,5,6,7-tetrahydro-6-propylaminobenzathiazole]",very little,approximately half the patients,,,,
,CCCN[C@H]1CCc2nc(N)sc2C1 [S(−) PPX],,,potent agonist,reduces oxidative stress,neuroprotective,can block the opening
